The structures appear in SMILES notation. Where “and” joins values, the source holds several entries; their conditions need not be identical. Equal entries are not always repeated. Where two headings read alike, the source gives them in different places.

Data set [1] deals with influenza A virus. The data set can be described thus: microbe, parasite or virus in culture. The format is cell-based. The note with it: A549, 48 h.
The test system of data set [2] is influenza A virus. Kind of data set: microbe, parasite or virus in culture. In kind it is cell-based. The note with it: MDCK, 48 h.
The test system of data set [3] is influenza A virus. The data set can be described thus: microbe, parasite or virus in culture. In kind it is cell-based. The note with it: 48 h.
The test system of data set [4] is influenza A virus. Kind of data set: microbe, parasite or virus in culture. The format is cell-based. To be noted: 72 h.
The next data set relates to A549 cells. Kind of data set: XTT cell viability assay, A549 cells. The format is cell-based, human. To be noted: 48 h. Background: Tetrazolium assays rely on reduction of a dye to a coloured formazan, in cell work by metabolically active cells.
The subject of a further data set is MDCK cells. The data set can be described thus: XTT cell viability assay, MDCK cells. The format is cell-based, canine. The note with it: 48 h.
Another data set has as its system LET1 cells. Kind of data set: XTT cell viability assay, LET1 cells. The format is cell-based, mouse. The note with it: 48 h.
In another data set the test system is HAE cultures. The data set can be described thus: Cytotoxicity in HAE cultures. In kind it is cell-based, human. The note with it: up to 160 µM (0.054 µg/mL).
In another data set the test system is ERK1. Kind of data set: cells. The format is cell-based, human.
In the next data set the test system is influenza A virus NP. The format is cell-based, human.
Data set [5] deals with influenza virus. To be noted: MDCK cells, ref Wu et al. [20], cited from earlier work.
For data set [6], the system named is influenza virus. The note with it: cited from earlier work.
In the next data set the test system is H1N1 virus. To be noted: MDCK cells; ref Cecil et al. [19]; cited from earlier work.

For the compound `COc1ccc2cc3[n+](cc2c1OC)CCc1cc2c(cc1-3)OCO2` [BBR, Berberine chloride hydrate], the IC50 (as a rule, the midpoint of a concentration-inhibition curve) is 17 µM and 6 µg/mL in the data set on influenza A virus [1]; 52 µM and 17 µg/mL in the data set with influenza A virus [2]; 4 µM and 1 µg/mL in the data set on influenza A virus [3]; 16 µM and 5 µg/mL in the data set on influenza A virus [4]; around 67 µM with influenza virus [5] (conversion of 0.025 µg/mL, read-out: IC50); 0.025 mg/L in the data set with influenza virus [5]. Further, the TC50 worked out at 107 µM with A549 cells; 0.036 mg/L in the data set on A549 cells (value in brackets); 1035 µM in the data set with MDCK cells; 0.350 mg/L in the data set with MDCK cells (value in brackets); 521 µM with LET1 cells; 0.176 mg/L with LET1 cells (value in brackets). For the same compound, the “cytotoxicity at tested concentrations” value in the data set with HAE cultures is “did not observe cytotoxicity”. The inhibition (as a rule, the drop in the measured response relative to a control, in per cent) at 20 µM with ERK1 (Homo sapiens, A549, 12 h, read-out: inhibition of ERK1 activation (phospho-ERK1, Western blot)) amounted to 45%. Besides, the “accumulation of influenza A virus NP in nuclear fractions” value in the data set with influenza A virus NP was “did not cause significant accumulation”. Moreover, in the data set with influenza A virus NP, the “decrease of NP signal in cytoplasmatic fraction” value is recorded as “about 40 % inhibition”. Moreover, the “increase of viral NP in nuclear fractions compared to untreated infection” value with influenza A virus NP is given as ~ 3 fold. Besides, the mice mortality with influenza virus [6] (mice models, reduced from 90%) is 55%. The “virus titers in the lungs” value in the data set on influenza virus [6] (mice, day 2 post-infection) is “decreased”. Further, the “inhibition of virus replication” value in the data set with H1N1 virus is “No inhibition”.
On to `N#CC(=C(/N)Sc1ccccc1N)/C(C#N)=C(/N)Sc1ccccc1N` [U0126, reference compound], for which the “inhibition of ERK1 activation (phospho-ERK1, Western blot)” value in the data set on ERK1 was 76 % inhibition. Further, in the data set with influenza A virus NP, the “decrease of NP signal in cytoplasmatic fraction” value is reported as “about 40 % inhibition” and the “increase of viral NP in nuclear fractions compared to untreated infection” value is ~ 3 fold.
